The target of one test is T1, iPLA2beta (Homo sapiens, UniProt O60733).
T1 sequence (O60733 1-806): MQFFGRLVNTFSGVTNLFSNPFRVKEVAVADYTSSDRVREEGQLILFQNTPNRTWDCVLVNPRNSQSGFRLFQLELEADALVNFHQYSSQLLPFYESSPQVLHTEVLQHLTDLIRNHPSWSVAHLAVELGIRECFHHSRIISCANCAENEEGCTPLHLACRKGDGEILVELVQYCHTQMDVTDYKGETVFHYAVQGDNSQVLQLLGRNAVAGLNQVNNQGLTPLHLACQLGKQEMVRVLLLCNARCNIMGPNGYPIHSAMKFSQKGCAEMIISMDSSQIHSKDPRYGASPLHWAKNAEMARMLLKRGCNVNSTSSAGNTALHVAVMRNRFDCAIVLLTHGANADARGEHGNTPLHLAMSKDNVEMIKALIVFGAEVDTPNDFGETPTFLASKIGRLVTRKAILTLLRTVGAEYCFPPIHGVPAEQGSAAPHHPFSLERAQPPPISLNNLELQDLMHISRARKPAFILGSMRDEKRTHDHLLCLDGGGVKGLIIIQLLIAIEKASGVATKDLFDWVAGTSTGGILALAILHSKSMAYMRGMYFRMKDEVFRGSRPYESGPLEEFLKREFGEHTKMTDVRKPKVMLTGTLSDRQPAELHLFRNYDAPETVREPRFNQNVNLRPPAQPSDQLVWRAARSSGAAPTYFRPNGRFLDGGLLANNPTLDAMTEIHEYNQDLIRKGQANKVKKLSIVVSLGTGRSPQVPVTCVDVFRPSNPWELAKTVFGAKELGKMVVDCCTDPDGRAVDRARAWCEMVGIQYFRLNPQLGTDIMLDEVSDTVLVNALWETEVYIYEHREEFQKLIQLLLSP
As to conditions: previously demonstrated (refs 37-39); cited from earlier work.

The next test has as its target T2, iPLA2epsilon (Homo sapiens, UniProt Q9NST1, K434E).
T2 construct: used as a template for PCR to obtain full-length CDNA for iPLA2epsilon; made in house; host or cells: Sf9 insect cells (baculovirus)
T2 sequence (Q9NST1 with tags, fused parts or gaps K434E): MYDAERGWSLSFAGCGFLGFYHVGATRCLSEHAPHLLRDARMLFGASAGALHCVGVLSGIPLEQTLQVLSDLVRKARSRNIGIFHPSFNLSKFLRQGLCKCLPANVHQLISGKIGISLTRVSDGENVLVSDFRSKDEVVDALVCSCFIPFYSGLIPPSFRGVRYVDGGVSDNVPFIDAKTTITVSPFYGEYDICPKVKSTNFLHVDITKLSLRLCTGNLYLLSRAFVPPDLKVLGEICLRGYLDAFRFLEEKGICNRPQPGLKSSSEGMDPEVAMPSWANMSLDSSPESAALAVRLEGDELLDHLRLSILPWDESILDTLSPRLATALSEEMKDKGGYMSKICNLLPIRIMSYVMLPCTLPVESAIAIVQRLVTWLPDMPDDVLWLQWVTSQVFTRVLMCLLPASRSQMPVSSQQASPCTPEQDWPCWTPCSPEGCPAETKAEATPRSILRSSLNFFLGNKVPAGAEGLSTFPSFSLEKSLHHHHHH
As to the kind of experiment: Triolein lipase activity inhibition by BEL. Type of test: biochemical. To be noted: pre-incubated with 0.1-2 microM BEL prior to substrate. Here is the method: (§1) Assay for Triolein Lipase Activity—Sample fractions were incubated in 85 mM potassium phosphate, pH 7.0 containing 2 mM EDTA and 2 mM DTT for 15 min at 37° C. in the presence of a suspension of 100 microM [9,10-^3H(N)]-triolein (100 microCi/micromol) in 25 microM egg yolk lecithin, and 100 microM sodium taurocholate. In some reactions, BEL was added at the indicated concentrations and incubated with enzyme at room temperature for 3 min prior to the addition of radiolabeled substrate. After extraction of radiolabeled reaction products and remaining substrate into butanol, samples were spotted on TLC plates, overlaid with oleic acid standard, dried, and developed in chloroformlmethanol/NH4OH (65:25:5). The region of the plate corresponding to the oleic acid standard (visualized by iodine staining) was scraped into scintillation vials and quantified by liquid scintillation spectrometry.
(§2) To determine whether the three new iPLA2 family members were inhibitable by BEL, each enzyme was pre-incubated with 0.1-2 microM BEL or ethanol vehicle alone prior to measuring triolein lipase activity (FIG. 5). […] Considering the hydrophobic nature of the acyl-glycerol substrates of iPLA2epsilon, iPLA2zeta, and iPLA2eta identified herein, it is not surprising that BEL would have access to the active sites of these enzymes.

The next test deals with T3, iPLA2zeta (Homo sapiens, UniProt Q96AD5, L481P).
T3 construct: Full-length human iPLA2zeta (TTS-2.2) and iPLA2eta (GS2) were amplified by PCR; made in house; host or cells: Sf9 insect cells (baculovirus)
T3 sequence (Q96AD5 with tags, fused parts or gaps L481P): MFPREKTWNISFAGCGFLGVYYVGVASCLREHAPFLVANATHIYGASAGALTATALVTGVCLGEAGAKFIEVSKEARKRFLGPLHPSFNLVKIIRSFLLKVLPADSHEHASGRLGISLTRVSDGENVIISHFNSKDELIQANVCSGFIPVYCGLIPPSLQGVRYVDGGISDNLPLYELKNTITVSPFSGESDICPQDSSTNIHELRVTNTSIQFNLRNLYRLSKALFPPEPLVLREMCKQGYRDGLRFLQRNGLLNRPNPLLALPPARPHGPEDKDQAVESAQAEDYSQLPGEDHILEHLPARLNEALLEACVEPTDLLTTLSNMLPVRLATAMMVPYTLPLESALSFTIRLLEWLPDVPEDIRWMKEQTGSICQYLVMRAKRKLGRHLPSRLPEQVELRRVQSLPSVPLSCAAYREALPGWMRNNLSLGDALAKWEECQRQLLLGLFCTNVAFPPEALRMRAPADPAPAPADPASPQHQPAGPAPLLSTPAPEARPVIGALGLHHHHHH
In words: Triolein lipase activity inhibition by BEL. To be noted: pre-incubated with 0.1-2 microM BEL prior to substrate. Type of test: biochemical. Here is the method:
as §1, §2

For a further test, the target named is T4, iPLA2eta (Homo sapiens, UniProt P41247).
T4 construct: Full-length human iPLA2zeta (TTS-2.2) and iPLA2eta (GS2) were amplified by PCR; made in house; host or cells: Sf9 insect cells (baculovirus)
T4 sequence (P41247 1-253): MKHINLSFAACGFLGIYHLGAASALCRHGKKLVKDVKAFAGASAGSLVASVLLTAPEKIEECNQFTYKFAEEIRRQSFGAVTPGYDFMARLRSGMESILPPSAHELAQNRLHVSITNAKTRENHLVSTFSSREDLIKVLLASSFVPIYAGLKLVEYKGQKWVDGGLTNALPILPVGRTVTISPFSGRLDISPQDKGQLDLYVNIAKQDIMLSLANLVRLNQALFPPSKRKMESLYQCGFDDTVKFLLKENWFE
As to the kind of experiment: Triolein lipase activity inhibition by BEL. To be noted: pre-incubated with 0.1-2 microM BEL prior to substrate. Type of test: biochemical. The procedure: as §1, §2

Test [1] has as its target iPLA2epsilon, iPLA2zeta, and iPLA2eta. As to the kind of experiment: Triglyceride lipase activity inhibition, summary over the three isoforms. In kind it is biochemical, human. To be noted: range over iPLA2epsilon, zeta, eta; read-out: IC50, triglyceride lipase activity of each of the three isoforms. Here is the method: as §1
The target of a further test is T5, iPLA2gamma (Homo sapiens, UniProt Q9NP80).
T5 sequence (Q9NP80 1-782): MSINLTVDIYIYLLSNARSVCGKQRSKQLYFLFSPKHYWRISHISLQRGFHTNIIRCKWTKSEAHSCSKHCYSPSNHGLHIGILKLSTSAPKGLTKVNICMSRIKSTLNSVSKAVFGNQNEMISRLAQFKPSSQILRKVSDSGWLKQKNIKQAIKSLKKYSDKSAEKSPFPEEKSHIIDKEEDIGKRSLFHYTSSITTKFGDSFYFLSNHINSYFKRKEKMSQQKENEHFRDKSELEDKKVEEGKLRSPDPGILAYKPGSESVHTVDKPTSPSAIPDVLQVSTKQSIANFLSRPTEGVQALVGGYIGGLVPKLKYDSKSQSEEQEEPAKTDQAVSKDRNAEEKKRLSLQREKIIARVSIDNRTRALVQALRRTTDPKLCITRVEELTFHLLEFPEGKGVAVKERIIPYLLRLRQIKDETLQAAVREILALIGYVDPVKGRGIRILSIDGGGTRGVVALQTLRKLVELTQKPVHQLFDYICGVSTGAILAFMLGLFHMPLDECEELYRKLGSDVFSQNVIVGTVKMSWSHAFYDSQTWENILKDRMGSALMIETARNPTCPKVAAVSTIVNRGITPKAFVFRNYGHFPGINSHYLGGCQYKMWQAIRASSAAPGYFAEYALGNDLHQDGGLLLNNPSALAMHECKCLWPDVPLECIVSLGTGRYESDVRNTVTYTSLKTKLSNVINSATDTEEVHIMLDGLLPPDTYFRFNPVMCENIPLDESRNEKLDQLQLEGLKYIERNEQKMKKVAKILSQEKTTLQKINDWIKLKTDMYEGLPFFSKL
As to conditions: previously demonstrated (refs 37-39); cited from earlier work.

Turning to `O=C1O/C(=C/Br)CCC1c1cccc2ccccc12` (stereo not drawn) [BEL, (E)-6-(bromomethylene)-3-(1-naphthalenyl)-2H-tetrahydropyran-2-one], the “inhibition of iPLA2beta activity” value at iPLA2beta was “sub to low micromolar concentrations”. In addition, the IC50 at iPLA2epsilon was approximately 100 nM; on iPLA2zeta, approximately 500 nM; against iPLA2eta, approximately 100 nM; in test [1], 100 to 500 nM. Moreover, the “inhibition of iPLA2gamma activity” value on iPLA2gamma is on record as “sub to low micromolar concentrations”.

The values are drawn from US7473541B2, “Identification, cloning, expression, and purification of three novel human calcium-independent phospholipase A2 family members possessing triacylglycerol lipase and acylglycerol transacylase activities” (priority 2004, dated 2009).
